Results as given in patent publication US8957106B2, “Iminosugar treatment of tumors” (The Chancellor, Masters and Scholars of the University of …, priority 2007, dated 2015).

Legend:
B16F10 cells = assay: Cell cycle distribution analysis (PI, flow cytometry), B16F10; assay type: cell-based, murine; conditions: B16F10, 6 μM, 24 h
Method: Cell cycle analysis in melanoma cells treated with GC2 was performed by determining DNA content using propidium iodide (PI) staining. PI intercalates into the major groove of double stranded DNA and produces a highly fluorescent adduct that can be excited at 488 nm and with a broad emission centered at 600 nm, see e.g. Krishan A. J. Cell. Biol. 66, 188, 1975. Melanoma cells (20×10^4) were cultured in 25 cm^2 tissue culture flasks for 24 h, followed by a further incubation for indicated time periods with 6 μM GC2. After treatment, adherent cells were trypsinized and a number of viable cells was determined by trypan blue exclusion. […] cells were re-suspended in 200 μl FACS buffer (2% FCS in PBS) and fixed with 600 μl absolute methanol, dropwise added under gentle vortexing, for at least 2 h at −20° C. Fixed cells were washed with FACS buffer, centrifuged for 5 min at 1500 rpm, at 4° C., and incubated for 30 min, in the dark, at room temperature (RT) with 200 μl PI staining solution in 3.8 mM sodium citrate (10 μl RNaze 10 μg/ml previously boiled for 5 min and 1 μl PI 10 mg/ml). The staining solution was removed by centrifugation and the cell pellet was re-suspended in 200 μl FACS buffer. Samples were analyzed for DNA content using a FACScan™ using CellQuest™ software (Becton Dickinson, San Jose, Calif.). […]

[1] = tested on: actin network in SKMel28 and MelJuSo cells; assay: Actin staining with Alexa Fluor 594 phalloidin, fluorescence microscopy; assay type: cell-based; conditions: 6 μM, 3 h
Method: Tumor cells were cultured 24 h on cover glasses, treated with GC2, and processed as described in Negroiu, G., et al. J. Biol. Chem. 278, 27035-27042, 2003. The acidic vesicular compartments were detected following incubation of live cells GC2 treated with Lysotracker® Red (0.125 μl/ml culture medium) for 30 min at 37° C. Fixed cells were incubated with the following primary antibodies: mouse anti-EEA1 (1:100), human-CD107A (anti-Lamp1) (1:50), a mouse anti-α tubulin (1:200) followed by an appropriate Alexa Fluor® 488 conjugated secondary antibodies (1:400) or with Alexa Fluor® 594 phalloidin. Finally, nuclei of fixed cells were stained with 5 mM Hoechst dye 33342. Cells were washed three times with PBS and mounted in Vectashield® mounting medium.
Whether tumor cell compartments and cytoskeletal elements are altered by GC2 treatment was analysed utilizing molecular markers for two main cell compartments: 1) EEA1 for early endosomes, which are accessed first by all endocytosed molecules and 2) Lamp-1 for lysosomes, the major degradative compartment. Actin filaments were labeled with Alexa Fluor® 594 phalloidin and microtubules with an anti-α-tubulin antibody; all samples were analyzed by fluorescence microscopy. […] Following GC2 treatment both endocytic markers were redistributed in large substructures detected also by phase contrast microscopy. […]

MelJuSo cells = assay: Autophagic vesicle detection with GFP-LC3; assay type: cell-based, human; conditions: MelJuSo transfected with GFP-LC3, 6 μM
Method: LC3 is a protein recruited to an autophagosome membrane. The recruitment process is essential for autophagy and LC3 is a specific marker of the process, see Kabeya Y., et al., EMBO J. 19, 5720-5728, 2000. […] Cells were transiently transfected with GFP-LC3 plasmid DNA using the liposomal transfection kit Lipofectamine PLUS™ Reagent (Gibco-BRL) as described in Negroiu, G., et al., J. Biol. Chem. 278, 27035-27042, 2003. 24 h after transfection cells were treated with GC2 for the indicated time periods and analyzed by fluorescence microscopy.
The localization of LC3 (microtubule-associated protein1 light chain 3), which is an established marker for autophagosome membranes, see e.g. Kabeya, Y., et al. EMBO J., 19, 5720-5728, 2000, was examined in cells treated with GC2. LC3 is newly synthetised and recruited to autophagosomal membranes when autophagy is activated and is detected as cup- and ring shaped structures, see e.g. Mizushima, N. et al. Int. J. Biochem. & Cell Biol. 36, 2491-2502, 2004. […] In GC2-treated MNT-1 cells, very few vacuoles were observed by a phase contrast microscopy. The MNT-1 cell line was also the least positive for autophagic marker (data not shown).

CC(=O)O.CCCCCCCCCN1[C@@H](CO)[C@@H](O)[C@H](O)[C@@H]1CCCCCCCC [GC2, (2S,3R,4R,5S)-3,4-dihydroxy-N-nonyl-5-octyl-2 hydroxymethylpyrrolidinium acetate] was tested, and the “number of cells in G2 phase” value (B16F10 cells; untreated 21.68%) was 16.96%, the “proportion of surviving cells in G0/G1 phase” value (B16F10 cells; untreated 45.42) was 53.74% and the “pattern of the fluorescent actin marker” value [1] was “disrupted”. For the same compound, the “GFP-LC3 distribution (autophagic marker)” value (MelJuSo cells) was “punctate pattern of bright fluorescence”.
